Where “and” joins values, the source holds several entries; their conditions need not be identical. Equal entries are not always repeated. Values belong to the compound of their own block, whether it stands above or below them.
Test system: 521955-158-R2-J5-PDC complex spheroid growth
Assay: Anticancer human tumor 521955-158-R2-J5-PDC patient-derived pancreatic carcinoma cell line growth inhibition [AhR]
Conditions: for viability, T/C: stronger effect = lower value
From the text: Multicellular complex tumor spheroid response to aryl hydrocarbon receptor antagonists in combination with a variety of drugs and investigational agents in selected tumor cell lines
The current study was undertaken to assess response to aryl hydrocarbon receptor antagonists in combination with standard-of-care drugs and investigational agents in solid tumor complex spheroid models. Complex spheroids include a stromal component modeled by human endothelial cells (HUVEC) and fibroblasts modeled by human mesenchymal stem cells (MSCs). The concentration ranges selected for each drug and investigational agent were based upon clinically achievable concentrations if the clinical Cmax of the agent was known.
Compounds. The drugs and investigational agents: BAY 2416964 (NSC825713), GNF351 (NSC835774), CH-223191 (NSC835775), CPI-455 (NSC825282), aza-TdCyd (NSC777586), decitabine (NSC127716), belinostat (NSC758774), entinostat (NSC756642), pevonedistat (NSC761192), tazemetostat (NSC777109), talazoparib (NSC765396), olaparib (NSC753686), selinexor (NSC780203), nedisertib (M3814, NSC802822), bortezomib (NSC756655), venetoclax (NSC766270), doxorubicin (NSC123127), elimusertib (BAY189344, NSC800525), ceralasertib (AZD6738, NSC777638), TAK-243 (NSC785004), alisertib (NSC759677), etoposide (NSC141540), topotecan (NSC609699), eribulin (NSC707389), gemcitabine (NSC613327), carboplatin (NSC241240), cisplatin (NSC119875), and SN-38 (NSC673596) were obtained from the National Cancer Institute (NCI) Developmental Therapeutics Program Chemical Repository (32). The FDA-approved anticancer drug set is available from the Developmental Therapeutics Program at https://dtp.cancer.gov/organization/dscb/obtaining/available plates.htm. […] The stock solutions were prepared in dimethyl sulfoxide (DMSO, Sigma-Aldrich, St. Louis, MO, cat. D2650), except for the platinum compounds which were prepared in saline (Quality Biological, Gaithersburg, MD, cat. 114-055-101), at 800-fold the tested concentration and stored at -70 degrees C prior to their use. All drugs and investigational agents were tested over a range starting from a high concentration at or near the clinical Cmax and decreasing in half-log increments. If the clinical Cmax for an agent had not been determined, the highest concentration tested was 10 microM (Table 1).
Cell Culture. All cells were maintained in an incubator at 37 degrees C and 5% CO2 with 95% humidity. The PDC lines were cultured according to standard operating procedures established by the NCI PDMR (https://pdmr.cancer.gov). Briefly, all PDCs were thawed and cultured in Matrigel-coated flasks prepared with a working solution of 1X Ham's F-12 nutrient mix, without supplementation (Invitrogen, Waltham, MA, cat. 11765054), 100 U/mL penicillin-streptomycin (Invitrogen, cat. 15140122), and 2.5% Matrigel (Corning Inc., Corning, NY, cat. 354248) for the first three passages. All PDCs were cultured in complete DMEM/F-12 media containing advanced DMEM/F-12 (Invitrogen, cat. 12634028), 4.9% defined fetal bovine serum, heat inactivated (HyClone Laboratories Inc., Logan, UT, cat. SH30070.03HI), 389 ng/mL hydrocortisone (Sigma-Aldrich, cat. H4001), 9.7 ng/mL human EGF recombinant protein (Invitrogen, cat. PHG0313), 23.4 microg/mL adenine (Sigma-Aldrich, cat. A2786), 97.3 U/mL penicillin-streptomycin (Invitrogen, cat. 15140122), 1.9 mM L-glutamine (Invitrogen, cat. 25030081), and 9.7 microM Y-27632 dihydrochloride (Tocris Bioscience, Bristol, United Kingdom, cat. 1254). The PDCs were cultured in complete DMEM/F12 media without 10 microM Y-27632 dihydrochloride for at least two passages prior to the screen. The established cell lines NCI-H1341 and […] were cultured in DMEM/F-12, HEPES (Invitrogen, cat. 11330032), 5% defined fetal bovine serum (HyClone Laboratories Inc., cat. SH30070.03), ITS premix universal culture supplement [insulin (5 microg/mL), transferrin (5 microg/mL), and selenious acid (5 ng/mL)] […]
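For viability, T/C in this document: spheroids mix tumor cells with HUVEC endothelium and human MSC stroma; luminescence taken as viability surrogate after a week of drug exposure.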

SMILES: COc1cccc2c1C(=O)c1c(O)c3c(c(O)c1C2=O)CC(O)(C(=O)CO)CC3OC1CC(N)C(O)C(C)O1 (configuration not stated)
viability, T/C (compound 0.0316 µM): 60.2% and 42.4% and 46.4%
viability, T/C (compound 0.1 µM): 51.7% and 29.8% and 35.3%
viability, T/C (compound 0.316 µM): 40.5% and 30.9% and 23.8%
viability, T/C (compound 1 µM): 2.19% and 6.39% and 4.25%
viability, T/C (compound 3.16 µM): 3.29% and 2.59% and 2.1%
viability, T/C (compound 10 µM): 12.3% and 10.8% and 14%
IC50 (curve of compound): 0.155 µM and < 0.0316 µM

SMILES: Cc1ccccc1N=Nc1ccc(NC(=O)c2ccnn2C)c(C)c1
IC50 (compound alone, run of 06/14/2022): > 10 µM

SMILES: Cc1cncc(-c2nc(NCCc3c[nH]c4ccccc34)c3ncn(C(C)C)c3n2)c1
IC50 (compound alone, run of 06/06/2022): > 10 µM

SMILES: Nc1ccn(C2OC(CO)C(O)C2(F)F)c(=O)n1 (configuration not stated)
viability, T/C (compound 0.0316 µM): 73.8% and 54.7% and 44.6%
viability, T/C (compound 0.1 µM): 79.4% and 73.8% and 60.9%
viability, T/C (compound 0.316 µM): 62.2% and 61% and 53.9%
viability, T/C (compound 1 µM): 39.4% and 28.6% and 24.9%
viability, T/C (compound 3.16 µM): 29.8% and 15.9% and 17.8%
viability, T/C (compound 10 µM): 28.7% and 13.2% and 15.3%
IC50 (curve of compound): 0.59 µM and 0.472 µM and 0.359 µM

SMILES: Nc1ncn(C2CC(O)C(CO)O2)c(=O)n1 (configuration not stated)
viability, T/C (compound 0.00316 µM): 92.7% and 87.2% and 101%
viability, T/C (compound 0.01 µM): 90.8% and 72.2% and 80.4%
viability, T/C (compound 0.0316 µM): 88.8% and 87.9% and 88.9%
viability, T/C (compound 0.1 µM): 73% and 52.6% and 68.5%
viability, T/C (compound 0.316 µM): 65.5% and 53.7% and 63%
viability, T/C (compound 1 µM): 48.3% and 38.4% and 39.5%
IC50 (curve of compound): 0.907 µM and 0.158 µM and 0.564 µM

SMILES: Nc1ncn(C2CC(O)C(CO)S2)c(=O)n1 (configuration not stated)
viability, T/C (compound 0.000949 µM): 104% and 88.3% and 99.6%
viability, T/C (compound 0.003 µM): 100% and 82.5% and 108%
viability, T/C (compound 0.00949 µM): 97.7% and 84.6% and 93%
viability, T/C (compound 0.03 µM): 93.5% and 74.3% and 75.1%
viability, T/C (compound 0.0949 µM): 98.7% and 75.1% and 73.7%
viability, T/C (compound 0.3 µM): 91.9% and 72.8% and 71.8%
IC50 (curve of compound): > 0.3 µM

SMILES: O=C(C=Cn1cnc(-c2cc(C(F)(F)F)cc(C(F)(F)F)c2)n1)NNc1cnccn1
viability, T/C (compound 0.00949 µM): 73.8% and 59.8% (2×)
viability, T/C (compound 0.03 µM): 59.6% and 58.9% and 58.5%
viability, T/C (compound 0.0949 µM): 50.6% and 38.9% and 40.5%
viability, T/C (compound 0.3 µM): 55.6% and 49.5% and 37.7%
viability, T/C (compound 0.949 µM): 45.3% and 45.9% and 37.6%
viability, T/C (compound 3 µM): 29.1% and 24.8% and 27.1%
IC50 (curve of compound): 0.256 µM and 0.163 µM and 0.0488 µM

Further lines, with some results ahead:

IC50 (curve of compound): > 0.1 µM
SMILES: Cn1ncnc1C1c2n[nH]c(=O)c3cc(F)cc(c23)NC1c1ccc(F)cc1 (configuration not stated)
viability, T/C (compound 0.000316 µM): 106% and 64.7% and 90.7%
viability, T/C (compound 0.001 µM): 103% and 97.9% and 110%
viability, T/C (compound 0.00316 µM): 94.6% and 105% and 89.1%
viability, T/C (compound 0.01 µM): 94.8% and 75% and 89.5%
viability, T/C (compound 0.0316 µM): 85.7% and 73.9% and 97.8%
viability, T/C (compound 0.1 µM): 84.5% and 74% and 80.7%

IC50 (curve of compound): 1.33 µM and 0.598 µM
SMILES: NS(=O)(=O)OCC1CC(n2ccc3c(NC4CCc5ccccc54)ncnc32)CC1O (configuration not stated)
viability, T/C (compound 0.0316 µM): 86.2% and 98.4% and 88.1%
viability, T/C (compound 0.1 µM): 99.3% and 98.1% and 95.9%
viability, T/C (compound 0.316 µM): 83.6% and 87.9% and 66%
viability, T/C (compound 1 µM): 54.8% and 54.6% and 36.6%
viability, T/C (compound 3.16 µM): 36.5% and 32.9% and 19.3%
viability, T/C (compound 10 µM): 30.5% and 21% and 16.8%

IC50 (curve of compound): 5.15 µM and 5.47 µM and 3.26 µM
SMILES: Nc1ccccc1NC(=O)c1ccc(CNC(=O)OCc2cccnc2)cc1
viability, T/C (compound 0.0316 µM): 97.7% and 110% and 106%
viability, T/C (compound 0.1 µM): 123% and 118% and 108%
viability, T/C (compound 0.316 µM): 106% and 127% and 115%
viability, T/C (compound 1 µM): 98.9% and 105% and 80%
viability, T/C (compound 3.16 µM): 63.6% and 66.5% and 53.9%
viability, T/C (compound 10 µM): 31.6% and 32.4% and 21.6%

IC50 (curve of compound): 5.55 µM and > 10 µM and 3.32 µM
SMILES: O=C(C=Cc1cccc(S(=O)(=O)Nc2ccccc2)c1)NO
viability, T/C (compound 0.0316 µM): 97.4% and 85.1% and 115%
viability, T/C (compound 0.1 µM): 95.1% and 99.1% and 103%
viability, T/C (compound 0.316 µM): 94.2% and 96.2% and 102%
viability, T/C (compound 1 µM): 88.4% and 104% and 69.3%
viability, T/C (compound 3.16 µM): 59.1% and 79.9% and 54.3%
viability, T/C (compound 10 µM): 40.5% and 52.5% and 24.2%

IC50 (curve of compound): > 10 µM
SMILES: O=C(c1cc(Cc2n[nH]c(=O)c3ccccc23)ccc1F)N1CCN(C(=O)C2CC2)CC1
viability, T/C (compound 0.0316 µM): 95.8% and 118% and 96.5%
viability, T/C (compound 0.1 µM): 104% and 72.7% and 112%
viability, T/C (compound 0.316 µM): 117% and 80.1% and 96%
viability, T/C (compound 1 µM): 89.8% and 84.7% and 92.4%
viability, T/C (compound 3.16 µM): 104% and 92.2% and 90.4%
viability, T/C (compound 10 µM): 84.5% and 65.4% and 76.3%

— PubChem BioAssay AID1918998 (Molecular Pharmacology Branch, DTP, NCI, 2023)
